The source of these data is patent US8877715B2, “Cytotoxic conjugates having neuropeptide Y receptor binding compound” (priority 2009, dated 2014).

One assay addresses T1, NPY-Y2 receptor (Homo sapiens, UniProt P49146).
T1 construct: the appropriate cells (SK-N-MC for NPY-Y1; host or cells: SK-N-BE2 human neuroblastoma cells (membrane homogenate)
T1 sequence (P49146 1-381): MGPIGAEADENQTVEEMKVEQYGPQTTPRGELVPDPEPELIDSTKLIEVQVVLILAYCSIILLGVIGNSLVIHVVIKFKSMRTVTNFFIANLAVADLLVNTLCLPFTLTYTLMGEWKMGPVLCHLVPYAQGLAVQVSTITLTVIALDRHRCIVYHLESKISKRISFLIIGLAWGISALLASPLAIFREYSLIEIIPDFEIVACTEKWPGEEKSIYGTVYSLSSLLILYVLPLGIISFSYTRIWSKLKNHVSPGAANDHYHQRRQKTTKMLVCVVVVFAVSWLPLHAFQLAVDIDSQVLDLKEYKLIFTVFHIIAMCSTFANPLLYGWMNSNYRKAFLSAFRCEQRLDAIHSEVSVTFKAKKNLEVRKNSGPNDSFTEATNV
The assay is described as follows: In vitro radioligand NPY-Y2 receptor binding assay ([125I]PYY, SK-N-BE2 cell membranes). The settings on record: [125I]PYY displacement. How it is done: In Vitro Radioligand NPY-Y1 and NPY-Y2 Receptor Binding Assays
Human neuroblastoma cell lines, SK-N-MC and SK-N-BE2 (American Type Culture Collection, Rockville, Md., USA), expressing the NPY-Y1 and NPY-Y2 receptors, respectfully, were cultured in EMEM containing 10% fetal calf serum and 5% chicken embryo extract, maintained at 37° C. in a humidified atmosphere of and 95% air and 5% CO2.
For the in vitro NPY-Y1 and NPY-Y2 radioligand binding assays, the appropriate cells (SK-N-MC for NPY-Y1; SK-N-BE2 for NPY-Y2) were harvested and then homogenized in 20 ml of ice-cold 50 mM Tris-HCl with a Brinkman Polytron (Westbury, N.Y., USA) (setting 6, 15 sec). The homogenates were washed twice by centrifugation (39,000 g/10 min), and the final pellets were resuspended in 50 mM Tris-HCl, containing 2.5 mM MgCl2, 0.1 mg/ml bacitracin (Sigma Chemical, St. Louis, Mo., USA), and 0.1% BSA.

Assay [1] concerns Human MCF-7 breast carcinoma cells. The assay is described as follows: In vivo growth assay, MCF-7 xenograft (Study A and Study B). The settings on record: Study B; for TGI: Day 15. Also on record: species or system nude mice. How it is done:
Once-weekly treatments were administered for three weeks by tail vein injection except in cases where poor drug solubility or tail necrosis necessitated intraperitoneal injections. […] Example 93 was evaluated in Study B at 55.45 mg/kg, 110.9 mg/kg and 221.8 mg/kg. Antitumor activity was assessed by tumor growth delay (“TGD”) defined as the difference in median time to endpoint tumor size in a treatment group compared to the control group, and by tumor growth inhibition (“TGI”) defined as the difference between median tumor volumes of the treatment and control groups on a study day providing a balance between measurable group responses and large group sizes. Toxicity was evaluated by body weight measurements and clinical observations.
Female nude mice (nu/nu, Harlan) were 10-11 weeks old and had body weight ranges of
The animals were fed ad libitum water (reverse osmosis, 1 ppm Cl) and NIH 31 Modified and Irradiated Lab Diet® consisting of 18.0% crude protein, 5.0% crude fat, and 5.0% crude fiber. The mice were housed on irradiated ALPHA-Dri® Bed-o′ Cobs® Laboratory Animal Bedding in static microisolators on a 12-hour light cycle at 21-22° C.
Human MCF-7 breast carcinoma cells were maintained in RPMI 1640 medium containing 100 units/mL penicillin G sodium, 100 μg/mL streptomycin sulfate, and 25 μg/mL gentamicin. The medium was supplemented with 10% heat-inactivated fetal bovine serum and 2 mM glutamine. Additional buffering was provided with 10 mM HEPES and 0.075% sodium bicarbonate. The tumor cells were cultured in tissue culture flasks in a humidified incubator at 37° C. in an atmosphere of 95% air and 5% CO2.
Three to seven days prior to cell injection, a pellet containing 17-β-estradiol (0.36 mg, 60-day release, Innovative Research of America) was implanted subcutaneously between the scapulae of each mouse.
The MCF-7 tumor cells used for implantation were harvested during log phase growth and resuspended in phosphate-buffered saline at 5×10^7 cells/mL. […] Tumors were monitored twice weekly and then daily as their volumes approached 80-120 mm^3. […] Thus, a separate study (“Study B”) was set up comprising six groups (n=10) of animals. In this study, 17 days elapsed between cell implantation and group assignment. […] Tumor size, in mm^3, was calculated from:
[formula] where w=width and l=length in mm of the MCF-7 tumor. Tumor weight may be estimated with the assumption that 1 mg is equivalent to 1 mm^3 of tumor volume.
Example 93 dosing solutions were prepared fresh in 0.1N acetic acid for each day of treatment.
Camptothecin (Lot No. 034K3648, Sigma) stock solutions were made from 60% DMA and 40% Tween 80 and stored at room temperature during the study. Dosing solutions were prepared fresh on each day of dosing by diluting the stocks 1:20 in saline.
The treatment plans are summarized in Table 3A for Study A and Table 3B for Study B.
All treatments and vehicles were given once-weekly for three doses (“qwk×3”). Group 1 mice received no gavage and no injections, and served as a control for tumor progression and estrogen toxicity. Group 2 animals received vehicle.
Each treatment dose was administered in a volume of 0.2 mL per 20 g of body weight, and was scaled to the body weight of the animal.
Median tumor growth curves of FIGS. 1-3 show median tumor volumes as a function of time. When an animal exited the study due to tumor size, the final tumor volume recorded for the animal was included with the data used to calculate the group median tumor volume at subsequent time points. Curves were truncated after 50% of animals in a group had exited the study.

On to “[Camptothecin-rvD/L-Asp-Suc-Tyr^1, Nle^17, A6c^31, 4Hyp^34]hNPY(1-36)-NH2 [93/93A]”, for which the Ki with NPY-Y2 receptor is greater than 1000 nM.
As for “[camptothecin-rvD-Asp-Suc-Tyr^1, Nle^17, A6c^31, 4Hyp^34]hNPY(1-36)-NH2 [Example 93]”, in assay [1], the “tumor growth delay (TGD)” value is “TGD analysis did not distinguish responses to Example 93 from tumor growth in the untreated control”. The figures for the TGI in assay [1] (110.9 mg/kg) and in assay [1] (221.8 mg/kg) were 71% and 77%, respectively. Besides, the mean tumor volume in assay [1] (G 4: 55.45 mg/kg qwk x 3, D 1) is on record as 112.9 mm^3; in assay [1] (G 4: 55.45 mg/kg qwk x 3, D 4) it was 206.3 mm^3; in assay [1] (G 4: 55.45 mg/kg qwk x 3, D 8), 227.6 mm^3; in assay [1] (G 4: 55.45 mg/kg qwk x 3, D 12), 236.1 mm^3; in assay [1] (G 4: 55.45 mg/kg qwk x 3, D 15), 323.1 mm^3; in assay [1] (G 4: 55.45 mg/kg qwk x 3, D 19), 348.4 mm^3. Further, the mean tumor volume in assay [1] (G 4: 55.45 mg/kg qwk x 3, D 22) came to 343.3 mm^3; in assay [1] (G 4: 55.45 mg/kg qwk x 3, D 26) it was 366.9 mm^3; in assay [1] (G 4: 55.45 mg/kg qwk x 3, D 29), 426.8 mm^3; in assay [1] (G 4: 55.45 mg/kg qwk x 3, D 33) it was 524.5 mm^3; in assay [1] (G 4: 55.45 mg/kg qwk x 3, D 36), 621.9 mm^3; in assay [1] (G 4: 55.45 mg/kg qwk x 3, D 40) it was 452.8 mm^3. Further, the mean tumor volume was found to be 112.8 mm^3 in assay [1] (G 5: 110.9 mg/kg qwk x 3, D 1); 217.3 mm^3 in assay [1] (G 5: 110.9 mg/kg qwk x 3, D 4); 213 mm^3 in assay [1] (G 5: 110.9 mg/kg qwk x 3, D 8); 186.6 mm^3 in assay [1] (G 5: 110.9 mg/kg qwk x 3, D 12); 242.5 mm^3 in assay [1] (G 5: 110.9 mg/kg qwk x 3, D 15); 212.6 mm^3 in assay [1] (G 5: 110.9 mg/kg qwk x 3, D 19). Also, the mean tumor volume in assay [1] (G 5: 110.9 mg/kg qwk x 3, D 22) is on record as 207.7 mm^3; in assay [1] (G 5: 110.9 mg/kg qwk x 3, D 26) it was 225.5 mm^3; in assay [1] (G 5: 110.9 mg/kg qwk x 3, D 29), 308.7 mm^3; in assay [1] (G 5: 110.9 mg/kg qwk x 3, D 33), 112.3 mm^3; in assay [1] (G 5: 110.9 mg/kg qwk x 3, D 36), 141.1 mm^3; in assay [1] (G 5: 110.9 mg/kg qwk x 3, D 40), 229.5 mm^3. In addition, the mean tumor volume in assay [1] (G 6: 221.8 mg/kg qwk x 3, D 1) was 112.7 mm^3; in assay [1] (G 6: 221.8 mg/kg qwk x 3, D 4) it was 197.9 mm^3; in assay [1] (G 6: 221.8 mg/kg qwk x 3, D 8), 170.3 mm^3; in assay [1] (G 6: 221.8 mg/kg qwk x 3, D 12), 108 mm^3; in assay [1] (G 6: 221.8 mg/kg qwk x 3, D 15), 122.8 mm^3; in assay [1] (G 6: 221.8 mg/kg qwk x 3, D 19), 66.6 mm^3. Besides, the mean tumor volume in assay [1] (G 6: 221.8 mg/kg qwk x 3, D 22) came to 66 mm^3; in assay [1] (G 6: 221.8 mg/kg qwk x 3, D 26), 80.4 mm^3; in assay [1] (G 6: 221.8 mg/kg qwk x 3, D 29), 90.1 mm^3; in assay [1] (G 6: 221.8 mg/kg qwk x 3, D 33) it was 109.6 mm^3; in assay [1] (G 6: 221.8 mg/kg qwk x 3, D 36), 123.8 mm^3; in assay [1] (G 6: 221.8 mg/kg qwk x 3, D 40) it was 233.2 mm^3. Moreover, the tumor growth curves result in assay [1] (all dose levels) is given as “clear reduction in tumor growth at all dose levels”.
In the assay with NPY-Y2 receptor, “[camptothecin-rvD/Lasp-Suc-Tyr^1, Nle^17, 4Hyp^34]hNPY(1-36)-NH2 [Example 92/92A]” registered a Ki greater than 1000 nM.
